Measurements: ChEMBL document CHEMBL1134435, “Synthesis of novel sialylmimetics as biological probes” (Bioorg Med Chem Lett, 2001)

What was measured:
Rotavirus [1] = experiment: Inhibitory concentration against Wa (human) strain of rotavirus; assay type: functional, organism-based
Rotavirus [2] = experiment: Inhibitory concentration against NCDV (bovine) strain of rotavirus; assay type: functional, organism-based
E-selectin = target: T1, E-selectin (Homo sapiens, UniProt P16581); experiment: Inhibitory concentration against E-selectin
T1 sequence (P16581 whole entry): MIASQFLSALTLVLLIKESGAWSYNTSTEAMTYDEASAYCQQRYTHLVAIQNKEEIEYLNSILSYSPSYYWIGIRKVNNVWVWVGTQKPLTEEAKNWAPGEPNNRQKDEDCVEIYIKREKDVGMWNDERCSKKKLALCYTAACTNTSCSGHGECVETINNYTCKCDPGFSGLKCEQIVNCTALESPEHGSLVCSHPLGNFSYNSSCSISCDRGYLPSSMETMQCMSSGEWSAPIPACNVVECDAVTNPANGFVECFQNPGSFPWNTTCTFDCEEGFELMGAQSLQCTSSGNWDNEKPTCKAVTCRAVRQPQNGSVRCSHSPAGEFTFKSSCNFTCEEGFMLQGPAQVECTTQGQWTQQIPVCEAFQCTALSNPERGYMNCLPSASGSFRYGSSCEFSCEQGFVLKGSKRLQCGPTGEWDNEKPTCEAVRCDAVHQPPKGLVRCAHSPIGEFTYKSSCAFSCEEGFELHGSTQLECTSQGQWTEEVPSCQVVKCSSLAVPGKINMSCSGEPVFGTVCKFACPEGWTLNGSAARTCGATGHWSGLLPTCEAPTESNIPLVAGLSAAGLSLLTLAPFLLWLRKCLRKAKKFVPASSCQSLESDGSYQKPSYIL

IC50 (Rotavirus [1]) [µM]	IC50 (Rotavirus [2]) [µM]	IC50 (E-selectin) [µM]	Structure (SMILES)
> 25000	> 25000	–	COC1OC(CSC(C)C(=O)O)C(O)C(O)C1O (centres undefined)
–	–	500	C[C@@H]1O[C@@H](O[C@@H]2CCCC[C@H]2O[C@@H]2O[C@@H](CO)[C@H](O)[C@H](OCC(=O)O)[C@@H]2O)[C@@H](O)[C@@H](O)[C@@H]1O
–	–	700	CC(=O)N[C@H]1[C@H]([C@H](O)[C@H](O)CO)O[C@@](O[C@H]2[C@@H](O)[C@@H](CO)O[C@@H](O[C@@H]([C@H](O[C@@H]3O[C@@H](C)[C@@H](O)[C@@H](O)[C@@H]3O)[C@H](C=O)NC(C)=O)[C@H](O)CO)[C@@H]2O)(C(=O)O)C[C@@H]1O [SIALYL LEWIS X]
